According to the NIST ThermoML archive (doi:10.1016/j.fluid.2005.11.020):
Where “and” joins values, the source holds several entries; their conditions need not be identical. Identical values can stand only once. Numbers after ± are expanded uncertainties.

Details: Liquid; for mass density: 293.2 K, 101.33 kPa, Vibrating tube method; for vapor or sublimation pressure: Ebulliometric method (Recirculating still)

Brc1ccccc1 [bromobenzene]
mass density: 1495.28 ± 0.48 kg/m3
vapor or sublimation pressure (428.8 K): 100.91 ± 1 kPa

Clc1ccccc1 [chlorobenzene]
mass density: 1106.07 ± 0.3 kg/m3
vapor or sublimation pressure (404.6 K): 100.82 ± 1 kPa

Fc1ccccc1 [fluorobenzene]
mass density: 1022.27 ± 0.27 kg/m3
vapor or sublimation pressure (357.5 K): 100.55 ± 1 kPa

CCCCCCC [heptane]
mass density: 683.53 ± 0.27 kg/m3
vapor or sublimation pressure (371.3 K): 100.91 ± 1 kPa and 100.6 ± 1 kPa
vapor or sublimation pressure (371.4 K): 100.95 ± 1 kPa
